Test results taken from patent US20170298438A1, “DETECTION AND TREATMENT OF BREAST CANCER” (The European Molecular Biology Laboratory, priority 2011, published 2017).

Tests used:
Type in all cases: cell-based, human
HeLa Kyoto cells = assay: H3S10ph immuno-labelling of synchronised HeLa Kyoto cells; settings: thymidine double block, BI2536 at 5 μM
Description: HeLa Kyoto cells were synchronised in S phase by a double thymidine block (Sigma). Briefly, a final concentration of 3 mM thymidine was added to the culture medium for 18 h, followed by release into fresh culture medium for 9 h and a second block with 3 mM thymidine for 17 h. […] Cell synchronisation was confirmed by flow cytometry. For immunofluorescence, HeLa Kyoto cells were grown on coverslips (12 mm #1 VWR International) and synchronised as described above. The synchronised cells were rinsed in PBS, fixed in 1% PFA, permeabilised with 0.1% Triton X-100/0.02% SDS, and blocked in 2% BSA. After the blocking step, phosphohistone H3 (H3S10ph) antibody was applied for 1 h at a dilution of 1/500 and after three washes with PBS, Alexa Fluor 594 antibody was added at a dilution of 1/300 for 1 h. Coverslips were washed three times in PBS and mounted with Vectashield non-fade DAPI (Vector Laboratories).

T47D cells = assay: H3S10ph immuno-staining, mitotic phase distribution in T47D cells; design: reduction of the proportion of mitotic T47D cells in prophase/prometaphase: dose or concentration left out as unconfirmed
Description: (§1) To prepare cell monolayers, 0.5×10^6 cells were cytospun onto glass slides at 800×g for 5 min using a Cytospin 4 cytocentrifuge (Thermo Scientific), air dried and fixed in 4% neutral buffered formalin overnight.
(§2) Section deparaffinisation, antigen retrieval and immuno-staining were performed using the Bond III Autostainer and Bond Polymer Refine Detection kit (Leica) according to the manufacturer's instructions. Heat-mediated antigen retrieval and proteolytic digestion were used for H3S10ph and PAPPA antigens, respectively. Primary antibodies were applied for 40 min at the following dilutions: PAPP-A at 1/200; H3S10ph at 1/4000. Cytospin preparations were immuno-stained using the same protocol without the deparaffinisation step. Incubation without primary antibody was used as a negative control and sections of tonsil and placenta were used as positive controls for H3S10ph and PAPPA antibodies, respectively.
Two consecutive serial sections from each tissue sample and two cytospin preparations for each cell line were immuno-stained for H3S10ph for analysis of mitotic phase distribution. […]
PAPPA and ZMPSTE24 (control) are zinc-dependent metalloproteinases of the metzincin superfamily. […] PAPPA and ZMPSTE24 expression levels were determined by qRT-PCR and western blot. […]

BT549 cells = assay: H3S10ph immuno-labelling, mitotic phase distribution in BT549 cells; settings: BT549 cytospin preparations
Description: as §1
as §2, with “Incubation without primary antibody was used as a negative control and sections of tonsil and placenta were used as positive controls for H3S10ph and PAPPA antibodies, respectively.” left out
PAPPA was silenced by RNAi with a specific RNA duplex targeting PAPPA mRNA (Ambion s10042; sense 5′-GAGCCUACUUGGAUGUUAAtt-3′ (SEQ ID NO. 37) and antisense 5′-UUAACAUCCAAGUAGGCUCtg-3′ (SEQ ID NO. 38) or, alternatively, a pool of duplexes (ON-TARGETpIus SMARTpooI, Dharmacon). Non-targeting siRNA (Stealth RNAi Negative Control Med GC, Invitrogen) was used as negative control. All transfections were performed with Lipofectamine 2000 (Invitrogen). PAPPA siRNA at 100 nM final concentration was used to achieve efficient knock-down. Cells were harvested at the indicated time points post-transfection. Knock-down efficiency was assessed by qRT-PCR and/or Western blot. […]

Compound: CC[C@@H]1C(=O)N(C)c2cnc(Nc3ccc(C(=O)NC4CCN(C)CC4)cc3OC)nc2N1C1CCCC1 [BI2536]
- phosphohistone H3 (H3S10ph) detection in synchronised cells (HeLa Kyoto cells): enrichment of prometaphase cells

Compound: Cc1cn([C@H]2C[C@H](O)[C@@H](CO)O2)c(=O)[nH]c1=O [thymidine]
- phosphohistone H3 (H3S10ph) detection in synchronised cells (HeLa Kyoto cells): not detected

Compound: IGF-1: recombinant Human IGF-1 (IMR-233, Imgenex); IGF receptor agonist
- effect on mitotic delay phenotype in T47D cells (T47D cells; T47D cells (PAPPA promoter methylated)): reverses the mitotic delay phenotype
- reduction of the proportion of mitotic T47D cells in prophase/prometaphase (T47D cells; recombinant human IGF-1, harvested 24 h later, cells serum starved 48 h, versus control): approximately one half

Compound: siRNA-42: single RNA duplex targeting PAPPA mRNA, Ambion s10042 (SEQ ID NO. 37 and 38) (chain 1 GAGCCUACUUGGAUGUUAA; chain 2 UUAACAUCCAAGUAGGCUC; listed as RNA, chemistry not given here)
- mitotic phase phenotype in BT549 cells (BT549 cells): prophase/prometaphase delay phenotype
